Calls of active or inactive are those of the source. No cut-off for these calls is given here.
Key:
Mycobacterium avium [1] = assay: Antimycobacterial activity against Mycobacterium avium 2447 Smt infected in BALB/c mice BMDM assessed as bacterial growth inhibition at 10 uM after 5 days; assay type: functional, organism-based
Mycobacterium avium [2] = assay: Antimycobacterial activity against Mycobacterium avium 2447 Smt infected in BALB/c mice BMDM assessed as bacterial growth inhibition upto 20 uM after 5 days; assay type: functional, organism-based

## Cc1cc(O)c(O)c(CNC(=O)CCC(CCC(=O)NCc2c(O)c(O)cc(C)[n+]2C)(CCC(=O)NCc2c(O)c(O)cc(C)[n+]2C)NC(=O)CCNC(=S)Nc2ccc(C(=O)O)c(-c3c4ccc(=[N+](C)C)cc-4oc4cc(N(C)C)ccc34)c2)[n+]1C
Mycobacterium avium [1]
  inhibition: Active
Mycobacterium avium [2]
  inhibition: Active

Reference: ChEMBL document CHEMBL3779895, “Antimycobacterial activity of rhodamine 3,4-HPO iron chelators against Mycobacterium avium: analysis of the contribution of functional groups and of chelator's combination with ethambutol” (Medchemcomm, 2015)
